According to patent US10684290B2, “LKB1 related diagnostics and treatments of cancer” (Dignity Health, priority 2014, dated 2020):

Columns and labels:
[1] = system: H838-KDLKB1 and H838-LKB1 cells; experiment: Flow cytometry of ROS levels (CellROX staining); format: cell-based, human; conditions: CellROX FACS, 12 h; 2DG 10 mM, Tm 1.25 μg/ml, BFA 30 ng/ml; baseline difference 1.4-fold
Experimental: To analyze levels of reactive oxygen species (ROS), 1×10^6 H838-KDLKB1 and H838-LKB1 cells were plated and treated with the indicated drugs. Cells were then stained with 0.5 1M CellRox™ for 30 min at 37° C., collected by trypsinization and washed with PBS. Following fixation with 2% Paraformaldehyde/PBS for 20 min, cells were brought to a final volume of 500 ll in PBS. CellRox™ staining of ROS was assessed using the Accuri C6 Flow Cytometer (BD Biosciences, San Jose, Calif., USA) with the threshold set at 80,000. A total of 30,000 events were collected per sample and ROS staining intensity determined using FCS Express 4 Flow Cytometer software. Background events were gated out using unstained control. Histogram plots were overlaid and histogram subtraction was performed by subtracting the integral of the stained control from the treated sample.

[2] = system: BiP/GRP78 in KRas/LKB1^wt and KRas/LKB1^null NSCLC tumors; experiment: Immunohistochemical staining of BiP in NSCLC tumors of treated mice; format: in vivo; conditions: 500 mg/kg twice a day for two days
Experimental: KRas^G12D/LKB1^lox/lox (KRas/LKB1^null) were generated by selective breeding of Lox-Stop-Lox KRas^G12D mice, purchased from Jackson Laboratories (Bar-Harbor, Me.), with LKB1^lox/lox mice obtained from Mouse Repository at the NCI and were inbred on a FVB background. KRas^G12D/LKB1^wt/wt (KRas/LKB1^wt) mice were generated by backcrossing Lox-Stop-Lox KRas^G12D onto a FVB background. Induction of lung tumors was performed. Briefly, six-week-old KRas/LKB1^null and KRas/LKB1^wt mice were transiently infected with 5×10^6 p.f.u. of Cre adenovirus (University of Iowa adenoviral core) via intranasal infection. At ˜6 weeks (KRas/LKB1^null) or ˜10 weeks (KRas/LKB1^wt) post-infection, mice underwent a baseline MRI scan to determine the baseline tumor burden. Mice with identified disease were randomized for daily treatment with either vehicle (PBS) or 500 mg/kg 2DG for three weeks, at which time mice received a follow-up MRI scan, sacrificed and the presence of disease confirmed by gross assessment and histology. For data generated in FIG. 2, KRas/LKB1^null and KRas/LKB1^wt mice with MRI positive tumors were treated either with 2DG (500 mg/kg) or vehicle (PBS) twice a day for two days before sacrifice and necropsy of tumor tissue. […]

H838-KDLKB1 cells = experiment: Clonogenic survival of H838-LKB1 and H838-KDLKB1 cells; format: cell-based, human; conditions: for Clonogenic cell survival of H838-KDLKB1 cells: 24 h, 2DG 10 mM, Tm 1.25 μg/ml, BFA 30 ng/ml
Experimental: Clonogenic survival assay were performed in 6 well dishes. Briefly, 200 of indicated cells were plated per well and allowed to attach overnight. Were indicated cells were pre-treated with 125 ng/ml of cyclohexamide (CHX) for one hour. Indicated drugs were diluted fresh into media and cells were treated for 24 h, at which time the drug containing media was removed and replaced with fresh media. After 14 days, cells were fixed in 10% Methanol/10% Acetic Acid and stained with 0.5% crystal violet. After washing in ddH2O, plates were allowed to dry and colonies of 50 cells or more were counted. The surviving fraction was calculated according to methods described by Franken et al. [Clonogenic assay of cells in vitro, NAT. PROT. 1 (5) (2006) 2315-2319].

[3] = system: KRas/LKB1^wt and KRas/LKB1^null NSCLC tumors; experiment: Murine transgenic models of KRas and KRas/LKB1 null NSCLC, MRI tumor volume; format: in vivo, mice
Experimental: KRas^G12D/LKB1^lox/lox (KRas/LKB1^null) were generated by selective breeding of Lox-Stop-Lox KRas^G12D mice, purchased from Jackson Laboratories (Bar-Harbor, Me.), with LKB1^lox/lox mice obtained from Mouse Repository at the NCI and were inbred on a FVB background. KRas^G12D/LKB1^wt/wt (KRas/LKB1^wt) mice were generated by backcrossing Lox-Stop-Lox KRas^G12D onto a FVB background. Induction of lung tumors was performed. Briefly, six-week-old KRas/LKB1^null and KRas/LKB1^wt mice were transiently infected with 5×10^6 p.f.u. of Cre adenovirus (University of Iowa adenoviral core) via intranasal infection. At ˜6 weeks (KRas/LKB1^null) or ˜10 weeks (KRas/LKB1^wt) post-infection, mice underwent a baseline MRI scan to determine the baseline tumor burden. Mice with identified disease were randomized for daily treatment with either vehicle (PBS) or 500 mg/kg 2DG for three weeks, at which time mice received a follow-up MRI scan, sacrificed and the presence of disease confirmed by gross assessment and histology. For data generated in FIG. 2, KRas/LKB1^null and KRas/LKB1^wt mice with MRI positive tumors were treated either with 2DG (500 mg/kg) or vehicle (PBS) twice a day for two days before sacrifice and necropsy of tumor tissue. Mice received daily checks to monitor for clinical signs of disease (labored breathing, weight loss) and all procedures were under a protocol approved by the St. Joseph's Hospital and Medical Center IACUC committee.
All the scans were performed using a 7T small animal, 30-cm horizontal-bore magnet and BioSpec Advance III spectrometer (Bruker, Billerica, Mass.) with a 72 mm quadrature volume coil. Each animal was induced and maintained under isoflurane anesthesia, 3.0% and 1.5%, respectively, and delivered with 1.5 L/min of 100% oxygen. During MRI scans, the animal's respiration was continually monitored by a small animal monitoring and gating system (SA Instruments, Stoney Brook, N.Y.) via a pillow sensor positioned on top of the abdomen. Mice were placed on a heated animal bed system (Bruker, Billerica, Mass.) and the normal body temperature (36-37° C.) was maintained. For MR imaging, a Fast Low Angle Shot (FLASH) sequence (TR/TE=40 ms/2 ms; FOV=60 mm×60 mm; Average=2; matrix=256×256; Flip Angle=30°) was used to acquire initial scout images, which were used for locating the lung region for subsequent images. Then T1 weighted images were obtained with the Fast Imaging with Steady State Precession (FISP) sequence (TR/TE 5.262 ms/2.0 ms; 8 segments; FOV=30 mm×30 mm; matrix=256×256; slice thickness=1.0 mm; Flip angle, 20°; 22 averages; total acquisition time=17 min). […] Change in tumor volumes was determined by comparison of baseline tumor volume to tumor volume following three weeks of treatment.

[4] = system: A427-KDLKB1 and A427-LKB1 cells; experiment: ATP measurement/cell viability (CellTiter-Glo), A427; format: cell-based, human; conditions: 48 h; 2DG 10 mM, Tm 1.25 μg/ml, BFA 30 ng/ml; p<0.005
Experimental: (§1) 500 H838 or A427 cells stably expressing either LKB1 or KDLKB1 were plated in 96 well plates. The following day, cells were dosed with the indicated treatments for 48 h. Cellular ATP levels were assessed using the CellTiter-Glo Luminescent Cell Viability Assay substrate (Promega) according to manufacturer's instructions. Luminescence was read using the DTX 880 Multimode Detector. Cellular ATP/cell viability was calculated relative to vehicle treated control.

[5] = system: H838-KDLKB1 and H838-LKB1 cells; experiment: ATP measurement/cell viability (CellTiter-Glo), H838; format: cell-based, human; conditions: 48 h; 2DG 10 mM, Tm 1.25 μg/ml, BFA 30 ng/ml; p<0.005
Experimental: as §1

[6] = system: H838-KDLKB1 and H838-LKB1 cells; experiment: Immunoblot of ER stress markers in H838-LKB1 and H838-KDLKB1 cells; format: cell-based, human; conditions: 12 h; 2DG 10 mM, Tm 1.25 ug/ml, BFA 30 ng/ml
Experimental: Cells were washed once with ice-cold PBS and incubated on ice for 30 min with a lysis buffer containing 10 mM Tris-HCl, 150 mM NaCl, 0.1% SDS and 1% IGEPAL (Sigma) to which a protease inhibitor cocktail (Sigma) and two phosphatase cocktails I and II (Sigma) were added immediately before use. Lysates were transferred to tubes and insoluble material was pelleted by centrifugation. For immunoblotting, 50-100 μg of total protein lysates were separated by SDS-PAGE and transferred to nitrocellulose. Blots were blocked in 5% milk/Tris buffered saline/0.1% TWEEN® 20 (polyoxyethylenesorbitan monolaurate) (TBST) and primary antibodies were diluted in 5% Bovine Serum Albumin (Sigma)/TBST and incubated overnight at 4° C. Blots were developed with ECL plus (GE) and visualized on a Kodak Image station.

[7] = system: LKB1 expressing and LKB1 null LA/NSCLC cell lines; experiment: Immunoblot of pAMPK and cleaved PARP in LKB1 expressing and LKB1 null cell lines; format: cell-based, human; conditions: 20 mM
Experimental: Cells were incubated on ice for 30 minutes with a lysis buffer containing 10 mM Tris-HCL, 150 mM NaCl, 0.1% SDS and 1% IGEPAL (Sigma). Immediately before use, a protease inhibitor cocktail (Sigma) and two phosphatase cocktails I and II (Sigma) were added to the lysis buffer. Lysates were transferred to tubes and insoluble material was pelleted by centrifugation. Nuclear protein fractions were isolated using a NE-PER protein extraction kit (ThermoFisher) according to manufacturer's instructions. Protein concentration was determined using the Bio-Rad DC protein kit. For immunoblotting, 50-100 ug of total protein lysates was separated by SDS-PAGE and transferred to nitrocellulose. Blots were blocked in 5% milk/Tris buffered saline/0.1% TWEEN® 20 (polyoxyethylenesorbitan monolaurate) (TBST) and primary antibodies were diluted in 5% Bovine Serum Albumin (Sigma)/TBST and incubated overnight at 4° C. Blots were developed with ECL plus (GE) and visualized on a Kodak Image station.
Cells were washed once with ice-cold PBS and incubated on ice for 30 min with a lysis buffer containing 10 mM Tris-HCl, 150 mM NaCl, 0.1% SDS and 1% IGEPAL (Sigma) to which a protease inhibitor cocktail (Sigma) and two phosphatase cocktails I and II (Sigma) were added immediately before use. Lysates were transferred to tubes and insoluble material was pelleted by centrifugation. […]

[8] = Chronic dosing tolerability in vivo
[9] = KRas/LKB1^null mice, data not shown

With `O=CC[C@@H](O)[C@H](O)[C@H](O)CO` [2DG, 2-deoxy-D-glucose] the “ROS levels in H838-KDLKB1, increase in intensity over H838-LKB1” value [1] was 2 fold, the “BiP protein levels in NSCLC tumor cells of KRas/LKB1^wt mice (IHC)” value [2] was “significant increase in BiP protein levels” and the “Clonogenic cell survival of H838-KDLKB1 cells” value (H838-KDLKB1 cells) was “reduced cell survival”. The “Growth of NSCLC tumors (change in tumor volume by MRI) compared to vehicle” value ([3]; 500 mg/kg daily, three weeks, KRas/LKB1 wt and KRas/LKB1^null mice) was “reduced the growth of NSCLC tumors”, the “Response of KRas/LKB1^null tumors compared to KRas/LKB1^wt tumors” value ([3]; 500 mg/kg daily, three weeks, p=0.0032) was “statistically greater response” and the “Effects upon metastasis, gross assessment at necropsy” value [3, 9] was “did not observe any effects upon metastasis”. For the same compound, the “Survival of mice in longer term studies” value [3, 9] was “no statistical impact upon survival”, the “Cellular ATP in A427-KDLKB1 compared to A427 re-expressing LKB1” value [4] was “reduced ATP” and the “Cellular ATP in H838-KDLKB1 compared to H838 re-expressing LKB1” value [5] was “reduced ATP”. For the same compound, the “Phosphorylated eIF2a in H838-KDLKB1 compared to H838-LKB1 cells” value [6] was “increased levels of phosphorylated eIF2a”, the “Phosphorylation of AMPK in LKB1 expressing H2009 cells (not in LKB1-deficient H23 cells)” value [7] was “resulted in phosphorylation of AMPK” and the “Cleavage of PARP (apoptosis) in LKB1 null LA cells (H2126, H838, H1395)” value ([7]; 12 and 18 hours) was “increased cleavage of poly(ADP-ribose) polymerase (PARP)”. The “Tolerability of chronic dosing” value [8] was “poorly tolerated”.
In the case of `C[C@H]1CCC/C=C/[C@@H]2C[C@H](O)C[C@H]2[C@H](O)/C=C/C(=O)O1` [BFA, brefeldin A], the “ROS levels in H838-KDLKB1, increase in intensity over H838-LKB1” value [1] is reported as 1.2 fold, the “Clonogenic cell survival of H838-KDLKB1 cells” value (H838-KDLKB1 cells) is reported as “reduced cell survival” and the “Cellular ATP in A427-KDLKB1 compared to A427 re-expressing LKB1” value [4] is reported as “reduced ATP”. The “Cellular ATP in H838-KDLKB1 compared to H838 re-expressing LKB1” value [5] was “reduced ATP” and the “Phosphorylated eIF2a in H838-KDLKB1 compared to H838-LKB1 cells” value [6] was “increased levels of phosphorylated eIF2a”.
For `C[C@@H]1C[C@@H]([C@H](O)CC2CC(=O)NC(=O)C2)C(=O)[C@@H](C)C1` [CHX, Cycloheximide], the “Effect of added CHX on 2DG, BFA and Tm cytotoxicity in H838-KDLKB1 cells” value (H838-KDLKB1 cells; 125 ng/ml CHX pre-treatment one hour, compared to 2DG, BFA or Tm alone, p<0.05) was “ameliorate 2DG, BFA and Tm cytotoxicity”.
